Experimental data from patent US10597388B2, “Pyridazinone herbicides” (FMC CORPORATION, priority 2014, dated 2020).

What was measured:
Test in all cases: Test C greenhouse herbicide test, pre- and postemergence
Assay type in all cases: in vivo
[1] = system: barnyardgrass (Echinochloa crus-galli)
Summary of the method: (§1)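 Each species was treated both before emergence, in a loam–sand soil mix, and after emergence, as 1- to 4-leaf seedlings in peat-based potting medium. Plants stayed in the greenhouse 13 to 15 d, then were scored from 0 (no effect) to 100 (complete control) relative to controls.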

[2] = system: blackgrass (Alopecurus myosuroides)
Summary of the method: as §1

corn (Zea mays) = system: corn (Zea mays)
Summary of the method: as §1

[3] = system: crabgrass, large (large crabgrass, Digitaria sanguinalis)
Summary of the method: as §1

[4] = system: foxtail, giant (giant foxtail, Setaria faberii)
Summary of the method: as §1

[5] = system: galium (catchweed bedstraw, Galium aparine)
Summary of the method: as §1

[6] = system: lambsquarters (Chenopodium album)
Summary of the method: as §1

[7] = system: morningglory (Ipomoea coccinea)
Summary of the method: as §1

[8] = system: nutsedge, yellow (yellow nutsedge, Cyperus esculentus)
Summary of the method: as §1

[9] = system: pigweed (Amaranthus retroflexus)
Summary of the method: as §1

[10] = system: ryegrass, Italian (Italian ryegrass, Lolium multiflorum)
Summary of the method: as §1

soybean (Glycine max) = system: soybean (Glycine max)
Summary of the method: as §1

[11] = system: velvetleaf (Abutilon theophrasti)
Summary of the method: as §1

[12] = system: waterhemp (common waterhemp, Amaranthus rudis)
Summary of the method: as §1

[13] = system: wheat (winter wheat, Triticum aestivum)
Summary of the method: as §1

[14] = Postemergence, 31 g ai/ha, 0 to 100 scale (0 no effect, 100 complete control)
[15] = Postemergence, 125 g ai/ha, scale 0 to 100, 0 is no effect, 100 is complete control
[16] = Postemergence, 250 g ai/ha, scale 0 to 100, 0 no effect, 100 complete control, 13 to 15 d
[17] = Preemergence, 31 g ai/ha, scale 0 to 100, 0 is no effect, 100 is complete control
[18] = Preemergence, 62 g ai/ha, scale 0 to 100, 0 is no effect, 100 is complete control
[19] = Preemergence, 125 g ai/ha, scale 0 to 100, 0 is no effect, 100 is complete control
[20] = Preemergence, 250 g ai/ha, scale 0 to 100, 0 no effect, 100 complete control
[21] = postemergence, 62 g ai/ha, scale 0 to 100, 0 no effect, 100 complete control

Cc1ccc2ccccc2c1-c1c(OC(=O)OC(C)C)c(C)nn(C)c1=O [Compound 72]
Barnyardgrass plant response rating [1, 14]: 35
Plant response rating, Barnyardgrass [1, 15]: 50
Plant response rating, Barnyardgrass [1, 16]: 65
Plant response rating, Barnyardgrass [1, 17]: 10
Plant response rating, Barnyardgrass [1, 18]: 20
Plant response rating, Barnyardgrass [1, 19]: 55
Barnyardgrass plant response rating [1, 20]: 80
Barnyardgrass plant response rating [1, 21]: 40
Blackgrass plant response rating [2, 14]: 60
Plant response rating, Blackgrass [2, 15]: 80
Plant response rating, Blackgrass [2, 16]: 90
Plant response rating, Blackgrass [2, 17]: 40
Plant response rating, Blackgrass [2, 18]: 50
Plant response rating, Blackgrass [2, 19]: 70
Blackgrass plant response rating [2, 20]: 90
Blackgrass plant response rating [2, 21]: 70
Corn plant response rating (corn (Zea mays); [14]): 5
Plant response rating, Corn (corn (Zea mays); [15]): 20
Plant response rating, Corn (corn (Zea mays); [16]): 25
Plant response rating, Corn (corn (Zea mays); [17]): 0
Plant response rating, Corn (corn (Zea mays); [18]): 0
Plant response rating, Corn (corn (Zea mays); [19]): 0
Corn plant response rating (corn (Zea mays); [20]): 20
Corn plant response rating (corn (Zea mays); [21]): 10
Crabgrass, Large plant response rating [3, 14]: 10
Plant response rating, Crabgrass, Large [3, 15]: 35
Plant response rating, Crabgrass, Large [3, 16]: 60
Plant response rating, Crabgrass, Large [3, 17]: 60
Plant response rating, Crabgrass, Large [3, 18]: 80
Plant response rating, Crabgrass, Large [3, 19]: 65
Crabgrass, Large plant response rating [3, 20]: 85
Crabgrass, Large plant response rating [3, 21]: 25
Foxtail, Giant plant response rating [4, 14]: 50
Plant response rating, Foxtail, Giant [4, 15]: 75
Plant response rating, Foxtail, Giant [4, 16]: 85
Plant response rating, Foxtail, Giant [4, 17]: 60
Plant response rating, Foxtail, Giant [4, 18]: 70
Plant response rating, Foxtail, Giant [4, 19]: 85
Foxtail, Giant plant response rating [4, 20]: 85
Foxtail, Giant plant response rating [4, 21]: 70
Galium plant response rating [5, 14]: 80
Plant response rating, Galium [5, 15]: 95
Plant response rating, Galium [5, 16]: 95
Plant response rating, Galium [5, 17]: 90
Plant response rating, Galium [5, 18]: 90
Plant response rating, Galium [5, 19]: 95
Galium plant response rating [5, 20]: 95
Galium plant response rating [5, 21]: 95
Lambsquarters plant response rating [6, 14]: 85
Plant response rating, Lambsquarters [6, 15]: 90
Plant response rating, Lambsquarters [6, 16]: 95
Plant response rating, Lambsquarters [6, 17]: 60
Plant response rating, Lambsquarters [6, 18]: 65
Plant response rating, Lambsquarters [6, 19]: 85
Lambsquarters plant response rating [6, 20]: 90
Lambsquarters plant response rating [6, 21]: 85
Morningglory plant response rating [7, 14]: 80
Plant response rating, Morningglory [7, 15]: 95
Plant response rating, Morningglory [7, 16]: 100
Plant response rating, Morningglory [7, 17]: 75
Plant response rating, Morningglory [7, 18]: 85
Plant response rating, Morningglory [7, 19]: 90
Morningglory plant response rating [7, 20]: 90
Morningglory plant response rating [7, 21]: 90
Nutsedge, Yellow plant response rating [8, 14]: 30
Plant response rating, Nutsedge, Yellow [8, 15]: 70
Plant response rating, Nutsedge, Yellow [8, 16]: 85
Plant response rating, Nutsedge, Yellow [8, 17]: 10
Plant response rating, Nutsedge, Yellow [8, 18]: 10
Plant response rating, Nutsedge, Yellow [8, 19]: 60
Nutsedge, Yellow plant response rating [8, 20]: 70
Nutsedge, Yellow plant response rating [8, 21]: 60
Pigweed plant response rating [9, 14]: 85
Plant response rating, Pigweed [9, 15]: 95
Plant response rating, Pigweed [9, 16]: 98
Plant response rating, Pigweed [9, 17]: 90
Plant response rating, Pigweed [9, 18]: 98
Plant response rating, Pigweed [9, 19]: 98
Pigweed plant response rating [9, 20]: 100
Pigweed plant response rating [9, 21]: 90
Ryegrass, Italian plant response rating [10, 14]: 85
Plant response rating, Ryegrass, Italian [10, 15]: 90
Plant response rating, Ryegrass, Italian [10, 16]: 90
Plant response rating, Ryegrass, Italian [10, 17]: 90
Plant response rating, Ryegrass, Italian [10, 18]: 90
Plant response rating, Ryegrass, Italian [10, 19]: 90
Ryegrass, Italian plant response rating [10, 20]: 90
Ryegrass, Italian plant response rating [10, 21]: 90
Soybean plant response rating (soybean (Glycine max); [14]): 10
Plant response rating, Soybean (soybean (Glycine max); [15]): 15
Plant response rating, Soybean (soybean (Glycine max); [16]): 30
Plant response rating, Soybean (soybean (Glycine max); [17]): 80
Plant response rating, Soybean (soybean (Glycine max); [18]): 0
Plant response rating, Soybean (soybean (Glycine max); [19]): 0
Soybean plant response rating (soybean (Glycine max); [20]): 0
Soybean plant response rating (soybean (Glycine max); [21]): 15
Velvetleaf plant response rating [11, 14]: 45
Plant response rating, Velvetleaf [11, 15]: 85
Plant response rating, Velvetleaf [11, 16]: 95
Plant response rating, Velvetleaf [11, 17]: 30
Plant response rating, Velvetleaf [11, 18]: 45
Plant response rating, Velvetleaf [11, 19]: 80
Velvetleaf plant response rating [11, 20]: 85
Velvetleaf plant response rating [11, 21]: 85
Waterhemp plant response rating [12, 14]: 70
Plant response rating, Waterhemp [12, 15]: 85
Plant response rating, Waterhemp [12, 16]: 85
Plant response rating, Waterhemp [12, 17]: 75
Plant response rating, Waterhemp [12, 18]: 90
Plant response rating, Waterhemp [12, 19]: 90
Waterhemp plant response rating [12, 20]: 90
Waterhemp plant response rating [12, 21]: 65
Wheat plant response rating [13, 14]: 30
Plant response rating, Wheat [13, 15]: 5
Plant response rating, Wheat [13, 16]: 35
Plant response rating, Wheat [13, 17]: 0
Plant response rating, Wheat [13, 18]: 0
Plant response rating, Wheat [13, 19]: 30
Wheat plant response rating [13, 20]: 40
Wheat plant response rating [13, 21]: 30
